Experimental data as given in ChEMBL document CHEMBL1143771, “Isothiazoles as active-site inhibitors of HCV NS5B polymerase” (Bioorg Med Chem Lett, 2007).
pEC50, pIC50: −log10 of the molar value.

Key:
[1] = Inhibition of HCV recombinant NS5B polymerase; design: species or system Hepacivirus hominis
[2] = tested on: Hepatitis C virus; assay: Antiviral activity against Hepatitis C virus by cell based replicon assay; assay type: functional, organism-based, Hepacivirus hominis

Compound `CS(=O)(=O)c1cccc(Nc2snc(O)c2C#N)c1` has a pIC50 [1] of 5.01.
Work on `N#Cc1c(O)nsc1Nc1ccccc1Oc1ccccc1` yielded a pIC50 [1] of 5.89.
`N#Cc1c(O)nsc1Nc1cc(Cl)cc(Cl)c1` showed a pIC50 [1] of 6.70 and a pEC50 [2] of 7.00.
`N#Cc1c(O)nsc1Nc1cccc(S(N)(=O)=O)c1` showed a pIC50 [1] of 5.01.
`N#Cc1c(O)nsc1Nc1cc(F)ccc1Oc1ccccc1` gave a pIC50 [1] of 6.30 and a pEC50 [2] of 5.47.
For `COC(=O)c1ccc(Cl)cc1Nc1snc(O)c1C#N`, the pIC50 [1] was 5.33.
For `N#Cc1c(O)nsc1Nc1cc(Br)ccc1OCc1ccccc1`, the pIC50 [1] was 6.52.
For `N#Cc1c(O)nsc1Nc1cc(Cl)cc(S(=O)(=O)NC23CC4CC(CC(C4)C2)C3)c1`, the pIC50 [1] was 5.74.
For `N#Cc1c(O)nsc1Nc1cccc(F)c1`, the pIC50 [1] was 6.05 and the pEC50 [2] was 5.54.
With `N#Cc1c(O)nsc1Nc1ccc(F)cc1` the pIC50 [1] was 5.92.
With `N#Cc1c(O)nsc1Nc1cc(Br)ccc1OCc1ccc2ccccc2c1` the pIC50 [1] was 5.77.
`N#Cc1c(O)nsc1Nc1cc(Br)cc(C(F)(F)F)c1` showed a pIC50 [1] of 6.52.
Compound `CCCCS(=O)(=O)c1cccc(Nc2snc(O)c2C#N)c1` has a pIC50 [1] of 5.08.
In the case of `N#Cc1c(O)nsc1Nc1cc(F)cc(F)c1`, the pIC50 [1] was 6.52 and the pEC50 [2] was 6.66.
In the case of `N#Cc1c(O)nsc1Nc1nc2ccc(F)cc2s1`, the pIC50 [1] was 4.36.
With `N#Cc1c(O)nsc1Nc1ccc(Cl)cc1Cl` the pIC50 [1] was 6.15.
`COc1cccc(Nc2snc(O)c2C#N)c1` showed a pIC50 [1] of less than 4.00.
`N#Cc1c(O)nsc1Nc1ccc(I)cc1` gave a pIC50 [1] of 5.92 and a pEC50 [2] of 5.96.
Work on `N#Cc1c(O)nsc1Nc1cc(Cl)ccc1OCc1ccc2ccccc2c1` yielded a pIC50 [1] of 5.19.
For `N#Cc1c(O)nsc1Nc1cc(C(=O)O)cc(C(F)(F)F)c1`, the pIC50 [1] was 5.82.
With `N#Cc1c(O)nsc1Nc1cc(Cl)ccc1OCc1ccccc1` the pIC50 [1] was 6.00.
In the case of `COC(=O)c1cc(Nc2snc(O)c2C#N)cc(C(F)(F)F)c1`, the pIC50 [1] was 5.70.
For `N#Cc1c(O)nsc1Nc1cc(C(F)(F)F)cc(C(F)(F)F)c1`, the pIC50 [1] was 5.23 and the pEC50 [2] was 5.70.
With `N#Cc1c(O)nsc1Nc1cc(C(F)(F)F)cc(S(=O)(=O)NC23CC4CC(CC(C4)C2)C3)c1` the pIC50 [1] was 5.46.
With `N#Cc1c(O)nsc1Nc1cccc(S(=O)(=O)NC23CC4CC(CC(C4)C2)C3)c1` the pIC50 [1] was 5.85.
In the case of `N#Cc1c(O)noc1Nc1cc(Br)cc(Br)c1`, the pIC50 [1] was 4.48.
In the case of `COC(=O)c1ccc(-c2ccc(Cl)cc2Nc2snc(O)c2C#N)o1`, the pIC50 [1] was 5.74.
With `Cc1cc(C)cc(Nc2snc(O)c2C#N)c1` the pIC50 [1] was less than 4.00.
